Test results taken from article PMC7343746, “(2S, 4R)-4-[^18F]Fluoroglutamine for In vivo PET Imaging of Glioma Xenografts in Mice: an Evaluation of Multiple Pharmacokinetic Models” (Molecular Imaging and Biology, 2020).
Values joined by “and” are separate entries in the source; they are usually repeats but may differ in a detail not shown here. Equal entries are not always repeated.

Legend:
[1] = system: rat BT4C glioma cells; experiment: In vivo PET imaging of subcutaneous glioma xenografts; design: species or system Foxn1^nu/nu mouse; conditions: for Tumor-to-background muscle ratio: at uptake plateau around 12.5 min
From the text: The subcutaneous tumor model was created by injecting rat BT4C glioma cells subcutaneously into the hind leg and neck region of six athymic nude (Foxn1^nu/nu, Envigo, Gannant, France) mice at 7 weeks old. Tumor growth was visually tracked and subjects PET imaged after 5 weeks. See Electronic Supplemental Materials (ESM) for detailed animal models.
(§1) One to two mice were imaged at a time while under 2 % isoflurane anesthesia with an Inveon multimodality small animal PET/CT scanner (Siemens Medical Solutions, Munich, Germany) commencing with an attenuation CT scan to correct the PET scan data. Ten to twelve megabequerels of the tracer was injected into the tail vein, and the subject(s) were imaged over a 60-min period in list mode dividing framing into 6 × 10 s, 4 × 60 s, 5 × 300 s, 3 × 600 s. Obtained sinograms were reconstructed using the ordered-subset expectation maximization 2-dimensional algorithm to obtain the final PET images and back-corrected for radionuclide decay.
(§2) Image analysis was performed using CARIMAS software published and freely distributed by the Turku PET Center (http://turkupetcentre.fi/carimas/). CT scans were used as rough anatomical reference while tumor regions of interest (ROI) were hand-drawn based upon observed spikes of radioactivity in the PET images at locations correlating with recorded tumor grafts. Control muscle ROIs were drawn on the side opposite to the tumor in the leg flank muscle (based on CT) while the blood ROI was drawn based upon heart anatomical location and observed PET image radioactivity spike during the initial 20 s of imaging in the left ventricle. Standardized uptake values (SUV) were calculated with respect to ROI volume, mean and max tumor radioactivity, total injected radioactivity dose (corrected for tail, cannula, and syringe residual radioactivity), and animal weight, and were additionally presented as tumor-to-background ratio (TBR, tumor-to-healthy brain region for intracranial gliomas and tumor-to-muscle for subcutaneous gliomas) as defined by recent glioma research literature standards. Mean and maximum TBR values were reported as ROI radioactivity per volume divided by mean background radioactivity per volume. The blood radioactivity SUV and gender-specific metabolite-corrected blood radioactivity SUV were then applied to multiple pharmacokinetic models to characterize the flux of the tracer (further described in the “Modeling” section).

[2] = system: patient-derived BT3 glioma cells; experiment: In vivo PET imaging of orthotopic glioma xenografts; design: species or system BALB/cOlaHsd-Foxn1^nu mouse; conditions: for PET TBRmean: orthotopic glioma
From the text: The intracranial glioma model was made by injecting female BALB/cOlaHsd-Foxn1^nu (athymic nude, Institute of Animal Genetics, Edinburgh, UK) mice with patient-derived BT3 glioma cells labeled with luciferase into the frontal right hemisphere of the brain at 9 weeks old. Tumors were monitored for growth via in vivo bioluminescence detection and subjects PET imaged after 12 days.
as §1
Image analysis was performed using CARIMAS software published and freely distributed by the Turku PET Center (http://turkupetcentre.fi/carimas/). CT scans were used as rough anatomical reference while tumor regions of interest (ROI) were hand-drawn based upon observed spikes of radioactivity in the PET images at locations correlating with recorded tumor grafts. Control muscle ROIs were drawn on the side opposite to the tumor in the leg flank muscle (based on CT) while the blood ROI was drawn based upon heart anatomical location and observed PET image radioactivity spike during the initial 20 s of imaging in the left ventricle. […] Mean and maximum TBR values were reported as ROI radioactivity per volume divided by mean background radioactivity per volume. The blood radioactivity SUV and gender-specific metabolite-corrected blood radioactivity SUV were then applied to multiple pharmacokinetic models to characterize the flux of the tracer (further described in the “Modeling” section).

[3] = system: patient-derived BT3 glioma cells; experiment: Yokoi plot, orthotopic model; format: in vivo, BALB/cOlaHsd-Foxn1^nu mouse; conditions: for Yokoi K1 (AB) plasma to tissue transport rate / Yokoi K1/k2 (AB) binding potential / Yokoi k2 (AB) tissue to plasma transport rate: AB input; for Yokoi K1 (PC) plasma to tissue transport rate / Yokoi K1/k2 (PC) binding potential / Yokoi k2 (PC) tissue to plasma transport rate: PC input
Method: as §2
(§3) Using the heart’s left ventricle ROI from the PET data as an uncorrected radioactivity level input and the bioavailable parent-tracer fraction (results: Eqs. 3 and 4 applied to the uncorrected input) as the corrected input, multiple models were investigated to characterize the tissue uptake dynamics. Two-compartment modeling and Logan, Patlak, and Yokoi plots were used to separately model the pharmacokinetics for the gliomas (both subcutaneous and orthotopic loci) and their respective control tissues (healthy muscle and healthy brain, respectively). Where indicated, means plus/minus standard deviations are reported. Difference in parameters for uncorrected versus correct and target tissue versus their respective control regions were tested with students’ paired t tests with P values lower than 0.05 being considered significant.

[4] = system: patient-derived BT3 glioma cells; experiment: Patlak plot (irreversible uptake model), orthotopic model; format: in vivo, BALB/cOlaHsd-Foxn1^nu mouse; conditions: for Patlak Ic (AB) y intercept: AB input; for Patlak Ic (PC) y intercept: PC input
Method: as §2, §3

[5] = system: rat BT4C glioma cells; experiment: Ex vivo biodistribution; format: in vivo, Foxn1^nu/nu mouse; conditions: higher than subcutaneous tumor
From the text: See Suppl. Materials in ESM for detailed descriptions of biodistribution, stability, cryosectioning, autoradiography, and histology.
Ex Vivo Biodistribution Results
The tracer accumulated highly in the pancreatic tissue with notable high uptake in the skull (bo ne) and femur (bone + marrow). The bone uptake is classically characteristic of defluorination occurring which leads to absorption into the osseous tissue. […]
adipose tissue likely due to the comparative increased number of metabolic processes which encompass its cell type characteristics.
Supplemental Fig. 11. Ex vivo biodistribution averages of [ 18F]FGln uptake 63 minutes post-injection in subcutaneously xenografted BT4C tumor bearing Foxn1 nu/nu mice (female, n = 5) and control C57BL/6JRj […]

NC(=O)[C@H]([18F])C[C@H](N)C(=O)O [[^18F]FGln, (2S, 4R)-4-[^18F]fluoroglutamine]
Tumor-to-background muscle ratio ([1]; flank locus): 2.0 ± 0.8
Tumor-to-background muscle ratio ([1]; neck locus): 1.8 ± 0.6
PET tumor-to-muscle (flank) ratio ([1]; subcutaneous BT4C gliomas, n = 12): 1.9 ± 0.7
Time at which tracer uptake plateaued ([1]; subcutaneous BT4C tumors): around 12.5 min
PET TBRmean ([2]; Subject A): 4.8
PET TBRmean ([2]; Subject B): 3.6
PET image tumor-to-healthy brain region ratio ([2]; orthotopic human glioma xenografts): 3.6 and 4.8
Yokoi K1 (AB) plasma to tissue transport rate ([3]; Subject A brain (control)): 0.018 mL min-1 mL-1
Yokoi K1/k2 (AB) binding potential ([3]; Subject A brain (control)): 0.34 mL mL-1
Yokoi k2 (AB) tissue to plasma transport rate ([3]; Subject A brain (control)): 0.054 min⁻¹
Yokoi K1 (PC) plasma to tissue transport rate ([3]; Subject A brain (control)): 0.019 mL min-1 mL-1
Yokoi K1/k2 (PC) binding potential ([3]; Subject A brain (control)): 0.68 mL mL-1
Yokoi k2 (PC) tissue to plasma transport rate ([3]; Subject A brain (control)): 0.028 min⁻¹
Yokoi K1 (AB) plasma to tissue transport rate ([3]; Subject A glioma max.): 0.120 mL min-1 mL-1
Yokoi K1/k2 (AB) binding potential ([3]; Subject A glioma max.): 1.59 mL mL-1
Yokoi k2 (AB) tissue to plasma transport rate ([3]; Subject A glioma max.): 0.075 min⁻¹
Yokoi K1 (PC) plasma to tissue transport rate ([3]; Subject A glioma max.): 0.121 mL min-1 mL-1
Yokoi K1/k2 (PC) binding potential ([3]; Subject A glioma max.): 2.95 mL mL-1
Yokoi k2 (PC) tissue to plasma transport rate ([3]; Subject A glioma max.): 0.041 min⁻¹
Yokoi K1 (AB) plasma to tissue transport rate ([3]; Subject A o.t. glioma): 0.078 mL min-1 mL-1
Yokoi K1/k2 (AB) binding potential ([3]; Subject A o.t. glioma): 1.50 mL mL-1
Yokoi k2 (AB) tissue to plasma transport rate ([3]; Subject A o.t. glioma): 0.052 min⁻¹
Yokoi K1 (PC) plasma to tissue transport rate ([3]; Subject A o.t. glioma): 0.083 mL min-1 mL-1
Yokoi K1/k2 (PC) binding potential ([3]; Subject A o.t. glioma): 2.96 mL mL-1
Yokoi k2 (PC) tissue to plasma transport rate ([3]; Subject A o.t. glioma): 0.028 min⁻¹
Yokoi K1 (AB) plasma to tissue transport rate ([3]; Subject B brain (control)): 0.015 mL min-1 mL-1
Yokoi K1/k2 (AB) binding potential ([3]; Subject B brain (control)): 0.33 mL mL-1
Yokoi k2 (AB) tissue to plasma transport rate ([3]; Subject B brain (control)): 0.045 min⁻¹
Yokoi K1 (PC) plasma to tissue transport rate ([3]; Subject B brain (control)): 0.015 mL min-1 mL-1
Yokoi K1/k2 (PC) binding potential ([3]; Subject B brain (control)): 0.69 mL mL-1
Yokoi k2 (PC) tissue to plasma transport rate ([3]; Subject B brain (control)): 0.022 min⁻¹
Yokoi K1 (AB) plasma to tissue transport rate ([3]; Subject B glioma max.): 0.046 mL min-1 mL-1
Yokoi K1/k2 (AB) binding potential ([3]; Subject B glioma max.): 1.29 mL mL-1
Yokoi k2 (AB) tissue to plasma transport rate ([3]; Subject B glioma max.): 0.036 min⁻¹
Yokoi K1 (PC) plasma to tissue transport rate ([3]; Subject B glioma max.): 0.049 mL min-1 mL-1
Yokoi K1/k2 (PC) binding potential ([3]; Subject B glioma max.): 2.79 mL mL-1
Yokoi k2 (PC) tissue to plasma transport rate ([3]; Subject B glioma max.): 0.017 min⁻¹
Yokoi K1 (AB) plasma to tissue transport rate ([3]; Subject B o.t. glioma): 0.045 mL min-1 mL-1
Yokoi K1/k2 (AB) binding potential ([3]; Subject B o.t. glioma): 0.99 mL mL-1
Yokoi k2 (AB) tissue to plasma transport rate ([3]; Subject B o.t. glioma): 0.046 min⁻¹
Yokoi K1 (PC) plasma to tissue transport rate ([3]; Subject B o.t. glioma): 0.047 mL min-1 mL-1
Yokoi K1/k2 (PC) binding potential ([3]; Subject B o.t. glioma): 1.96 mL mL-1
Yokoi k2 (PC) tissue to plasma transport rate ([3]; Subject B o.t. glioma): 0.024 min⁻¹
Patlak Ic (AB) y intercept ([4]; Subject A brain (control)): 0.1654
Patlak Ic (PC) y intercept ([4]; Subject A brain (control)): 0.2100
Patlak Ic (AB) y intercept ([4]; Subject A glioma max.): 1.07
Patlak Ic (PC) y intercept ([4]; Subject A glioma max.): 1.4536
Patlak Ic (AB) y intercept ([4]; Subject A o.t. glioma): 0.7386
Patlak Ic (PC) y intercept ([4]; Subject A o.t. glioma): 0.9480
Patlak Ic (AB) y intercept ([4]; Subject B brain (control)): 0.1316
Patlak Ic (PC) y intercept ([4]; Subject B brain (control)): 0.1563
Patlak Ic (AB) y intercept ([4]; Subject B glioma max.): 0.4556
Patlak Ic (PC) y intercept ([4]; Subject B glioma max.): 0.5434
Patlak Ic (AB) y intercept ([4]; Subject B o.t. glioma): 0.4687
Patlak Ic (PC) y intercept ([4]; Subject B o.t. glioma): 0.5996
Pancreas uptake relative to tumor [5]: 6 fold
